Assay results as given in publication PMC11098088, “A distinct, high-affinity, alkaline phosphatase facilitates occupation of P-depleted environments by marine picocyanobacteria” (Proceedings of the National Academy of Sciences of the …, 2024).

T1: Psip1 (Prochlorococcus marinus, UniProt Q7V066)
T1 construct: gene PMM1416; predicted signal peptide removed; codon-optimized; pET-23a(+), C-terminal His-tag; E. coli BL21(DE3); reconstituted with Fe and Ca
T1 sequence (Q7V066 24-694): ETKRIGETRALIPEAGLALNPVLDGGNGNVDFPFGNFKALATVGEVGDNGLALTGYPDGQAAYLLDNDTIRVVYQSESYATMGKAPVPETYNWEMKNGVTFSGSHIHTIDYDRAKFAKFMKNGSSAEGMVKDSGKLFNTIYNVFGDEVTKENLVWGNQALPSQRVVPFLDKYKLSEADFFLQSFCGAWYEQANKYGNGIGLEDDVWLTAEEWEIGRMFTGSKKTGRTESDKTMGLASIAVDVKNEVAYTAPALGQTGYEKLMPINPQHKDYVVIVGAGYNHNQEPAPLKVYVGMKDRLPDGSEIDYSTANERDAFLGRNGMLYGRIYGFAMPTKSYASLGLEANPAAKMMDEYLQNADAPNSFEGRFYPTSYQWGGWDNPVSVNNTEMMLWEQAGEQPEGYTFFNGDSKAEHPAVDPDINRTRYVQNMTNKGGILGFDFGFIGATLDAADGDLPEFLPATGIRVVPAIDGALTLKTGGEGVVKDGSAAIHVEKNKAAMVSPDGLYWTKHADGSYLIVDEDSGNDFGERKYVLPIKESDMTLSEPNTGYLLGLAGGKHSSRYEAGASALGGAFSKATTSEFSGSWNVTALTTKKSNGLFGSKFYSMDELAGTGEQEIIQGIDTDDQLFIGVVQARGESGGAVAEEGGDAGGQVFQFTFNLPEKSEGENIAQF

B1: Psip1 (Prochlorococcus marinus subsp. pastoris str. CCMP1986) (protein)
chain: T1 sequence (Q7V066 24-694)
notes: predicted signal peptide removed; codon-optimized; pET-23a(+), C-terminal His-tag; E. coli BL21(DE3); reconstituted with Fe and Ca

Tests used:
[1] = target: T1, Psip1; assay: inhibition of MUF release from MUF-P; format: biochemical; conditions: competing with MUF-P; estimated Ki; Fe(III) and Ca2+; Pi release by phosphomolybdate assay
Text: inhibition of MUF release from […] on Psip1 | natural organic P compounds: glycerol-1-phosphate (G1P) | glycerol-3-phosphate (G3P) | phosphocholine (PC) | phosphorylethanolamine (PE) | adenosine monophosphate (AMP) | glucosamine-6-phosphate (Ga6P) by measuring the inhibition of MUF release from […]

[2] = substrate: O=[N+]([O-])c1ccc(OP(=O)(O)O)cc1; assay: purified protein; format: biochemical, Prochlorococcus marinus; conditions: pH 9.8, Fe(III) and Ca2+, 30 °C
[3] = substrate: Cc1cc(=O)oc2cc(OP(=O)(O)Oc3ccc4c(C)cc(=O)oc4c3)ccc12; assay: purified protein; conditions: pH 8.8, Fe(III) and Ca2+, 30 °C, phosphodiesterase activity

Molecule | Ki [1] [nM] | Km [2] [µM] | Km [3] [µM]
Nc1ncnc2c1ncn2[C@@H]1O[C@H](COP(=O)(O)O)[C@@H](O)[C@H]1O [adenosine monophosphate] | 1520 ± 220 |  | 
N[C@H]1C(O)O[C@H](COP(=O)(O)O)[C@@H](O)[C@@H]1O (some centres unmarked) [glucosamine-6-phosphate] | 600 ± 110 |  | 
O=P(O)(O)OCC(O)CO (centres unmarked) [glycerol-1-phosphate] | 1200 ± 200 |  | 
O=P(O)(O)OC[C@H](O)CO [glycerol-3-phosphate] | 790 ± 150 |  | 
C[N+](C)(C)CCOP(=O)([O-])O [phosphocholine] | 2200 ± 370 |  | 
NCCOP(=O)(O)O [phosphorylethanolamine] | 4460 ± 1080 |  | 
B1 |  | 2.5 ± 1.18 | 46.1 ± 5.72
